Laboratory results: PubChem BioAssay AID179 (DTP/NCI, 2004)
pEC50, pIC50: −log10 of the molar value. “And” between values parts separate entries of the source, which are not always exact repeats. Equal entries are not always repeated. The source made the active and inactive calls.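 How the source made its calls: active means compounds giving half or more protection of infected cells from virus-caused growth loss, again on retest; inactive means the rest.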 Where a SMILES comes first, the peptide text is derived from it. The star is where a group is joined. Cbz = O=C(OCc1ccccc1)*

Test system: CEM cells HIV-1 protection, formazan growth assay
Assay: NCI AIDS Antiviral Assay
Details: for pIC50: measured here: growth of uninfected CEM cells
Procedure, shortened: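 Protection of CEM cells against HIV-1 measured as cell growth via soluble formazan read-out, with five concentrations tested on both infected and uninfected cells; failure to protect may reflect toxicity.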

SMILES | pEC50 | pIC50 | outcome
CCCCCCCCCCCCCCCCN1C(=O)/C(=C\c2ccc(O)cc2)SC1=Nc1ccccc1 | < 4.35 | < 4.35 | –
COc1ccc(C2c3cc4c(cc3OC(NNc3ccccc3)C2C)OCO4)cc1 (stereo not drawn) | < 3.70 | 4.93 | –
COc1ccc(-c2c3c([nH]c(=S)c2C#N)CC(C)(C)CC3=O)cc1 | – | – | inactive
S=C1NCCNC(=S)SSC(=S)SS1 | < 5.63 | < 5.63 | –
Nc1ncnc2c1ncn2[C@H]1CC[C@]2(CO)C[C@H]12 | < 4.60 | < 4.60 | –
CC(=C/c1ccccc1)/C=C1/NC(=S)N(/C=C2\C(=O)Oc3ccccc3C2=O)C1=O | < 3.70 | < 3.70 | –
CCOP(=O)(Cc1ccc(CP(=O)(OCC)OCC)n1C)OCC | – | – | inactive
CC1CCC2(OC1)OC1CC3C4CCC5CC(O)CCC5(C)C4CC(=O)OC3(C)C1C2C (stereo not drawn) | – | – | inactive
O=C1CCC2(c3ccccc3)Nc3cc(Cl)ccc3N12 (stereo not drawn) | – | – | inactive
COc1ccc(CCCN2c3ccccc3Sc3ccccc32)cc1 | < 4.97 | < 4.97 | –
CCOC(=O)CCC(NC(=O)OCc1ccccc1)C(=O)NC(CC(=O)OC)C(=O)NC(CC(=O)OC)C(=O)NC(CCC(=O)OCC)C(=O)OCC (stereo not drawn) (Cbz-E(OEt)D(OMe)D(OMe)E(OEt)-OEt; configuration not given here) | < 4.30 | < 4.30 | –
C=C[C@@H]1C(CO)=CCC2[C@H]1CCC1C(C)(C)C(=O)CC[C@]21C (stereo partly drawn) | < 3.70 | < 3.70 | –
COc1cc2c(cc1OC)C(C(=O)c1cccc(OC)c1OC)C(=O)N(C)CC2 (stereo not drawn) | < 3.90 | < 3.90 | –
CCOc1ccccc1NC(=O)CC1C(=O)Nc2ccccc2S1=O (stereo not drawn) | < 4.42 | < 4.42 | –
N#CCN(Cc1ccccc1)[C@H]1CCC[C@]1(O)/C=C/c1ccc2c(c1)OCO2 | < 3.70 | 4.49 | –
CCOC(=O)Cn1nc2oc(=O)c(CCN3CCN(c4ccccc4OC)CC3)c(C)c2c1C | < 3.70 | < 3.70 | –
O=C1Sc2ccccc2C(=O)N2CS(=O)CC12 (stereo not drawn) | < 4.00 | < 4.00 | –
CC12Nc3c(Cl)cc(Cl)cc3N1C(=O)c1ccccc12 (stereo not drawn) | < 3.70 | 4.06 | –
COc1cc([C@@H]2c3cc4c(c(O)c3C[C@H]3COC(=O)[C@@H]32)OCO4)cc(OC)c1OC | < 7.70 | 8.51 | –
COC(=O)Nc1cn2ccc(Sc3ccccc3)cc2n1 | < 4.34 | 6.11 | –
CN(C)CCCN1N=Nc2cccc3cccc1c23 | – | – | inactive
O=C1/C(=C/c2ccccc2)Oc2cc(O)ccc21 | < 3.70 | 3.96 | –
CN1C(=O)/C(=N\n2c(-c3ccccc3)nc3ccccc3c2=O)c2cc(Br)ccc21 | < 3.70 | < 3.70 | –

SMILES | pEC50 | pIC50 | outcome
OCCN=C1Nc2ccc(Cl)cc2C(=S)N2CSC[C@@H]12 | < 3.70 | < 3.70 | –
COc1ncnc2c1ncn2C1OC(CO)CC1F (stereo not drawn) | < 3.73 | < 3.73 | –
c1ccc2c3nnc(c2c1)SCCSCCCSCCS3 | < 3.70 | < 3.70 | –
Cc1noc(NS(=O)(=O)c2ccc(N=c3c4ccccc4n(Cc4ccccc4)c4ccccc34)cc2)c1C | – | – | inactive
C=C1CC(Cn2ccc(=O)[nH]c2=O)(c2ccc(OC)cc2)OC1=O (stereo not drawn) | < 3.70 | 5.56 | –
NCCCN1CCN(CCCN)CC1 (tested in a mixture with another compound) | < 3.70 | < 3.70 | –
NC1(C(=O)O)CCCCC1c1ccccc1 (stereo not drawn) | < 4.37 | < 4.37 | –
CN1CCC(=O)/C(=C/c2ccccc2)C1 | – | – | inactive
Clc1nc(Nc2nc3ccccc3[nH]2)nc(Cl)c1-c1ccccc1 | – | – | inactive
CN(C)c1ccc(/C=C(\C#N)C(=O)O)cc1 | < 3.36 | 3.66 | –
COC(=O)C(CC1=C(O)Nc2ccccc2N1)/C(=N/NC(N)=O)C(=O)Nc1ccccc1C (stereo not drawn) | – | – | inactive
CC#CCCN(CC#N)Cc1ccccc1 | < 3.70 | < 3.70 | –
O=C(Nc1cc(Cl)c(Cl)cc1Cl)C(=O)C1C(=O)NC(=S)NC1=O | – | – | inactive
Cc1cc(C)c2c(c1)C(=O)c1c(O)ccc(O)c1C2=O | – | – | inactive
N/C(=N\N=C\c1cccc2ccccc12)N/N=C/c1cccc2ccccc12 | < 3.70 | 5.04 | –
O=C1C(Cl)=C(c2ccc(Cl)s2)C(=O)c2ccccc21 | < 4.37 | 5.12 | –
O=c1n(CC2CO2)c(=O)n(CC2CO2)c(=O)n1CC1CO1 (stereo not drawn) | < 3.08 | 5.82 | –
BrC(Br)=C1C(=C(Br)Br)C(Br)C1Br (stereo not drawn) | – | – | inactive
C=CCCCC(C(=O)OCC)C(=O)OCC | – | – | inactive
COc1ccc(Cc2nnc3nc(OC)c(-c4ccc(OC)cc4)n3n2)cc1 | < 4.30 | < 4.30 | –
CC1C2Cc3ccc(O)cc3C1(C)CCN2CC1CC1 (stereo not drawn) | < 3.70 | < 3.70 | –
O=C1c2cn[nH]c2C(c2ccccc2)N1c1ccccc1 (stereo not drawn) | – | – | inactive
CC1(/C=C/CCSc2ccccc2)CC(=O)C2CC1C2(C)C (stereo not drawn) | < 3.70 | 5.10 | –

SMILES | pEC50 | pIC50 | outcome
N#Cc1ccc(-c2nc(C#N)c(N)o2)cc1 | 3.87 | < 3.70 | –
CCN(CC)CC(O)CN(CC(=O)Nc1c(C)cccc1C)CC(C)C (stereo not drawn) | < 3.70 | < 3.70 | –
O=c1[nH]nc(Cl)c2c(O)c3ccccc3c(O)c12 | < 4.17 | 4.49 | –
CN1CC[C@@H](c2c(O)cc(O)c3c(=O)cc(-c4ccccc4Cl)oc23)[C@@H](O)C1 | 8.00 | 7.33 | –
CCOC1=NC(=O)CC(c2ccccc2)S1 (stereo not drawn) | – | – | inactive
Cc1ccc(NC(=O)CCc2nnc3s/c(=C\C=C\c4ccccc4)c(=O)n23)cc1 | < 4.21 | < 4.21 | –
O=c1oc(-c2ccccc2)nnc1-c1ccccc1 | < 3.75 | < 3.75 | –
CCOc1ccc(N=NC2C(=O)N(C(=O)CC(=O)Nc3ccccc3OC)N=C2C)cc1 (stereo not drawn) | < 3.70 | 5.14 | –
NC(=O)c1ncn(CC2(COC(=O)c3ccccc3)CCC2)n1 | < 3.70 | < 3.70 | –
O=NNc1ccc(S(=O)(=O)c2ccc(NN=O)cc2)cc1 | – | – | inactive
C1CSCCSCCSCCSCCS1 | < 4.76 | < 4.76 | –
Nc1ccccc1SSc1ccccc1N | < 3.70 | 4.60 and 5.27 | inactive
COC1=C(Br)[C@H](O)[C@@]2(C=C1Br)CC(C(=O)NCCCOc1c(Br)cc(C(O)CNC(C)=O)cc1Br)=NO2 (stereo partly drawn) | < 5.00 | 5.18 | –
CC1(C)N(OC2CCCCO2)C(c2ccccc2)C(c2ccccc2)=[N+]1[O-] (stereo not drawn) | < 3.70 | 4.45 | –
Cc1oc2c(C)c3oc(=O)cc(C)c3cc2c1CO | < 3.70 | 4.52 | –
CCOC(=O)c1ccc(C(O)CC(=O)OC(C)(C)C)[nH]1 (stereo not drawn) | < 3.70 | 4.42 | –
COc1ccccc1C(=O)N(C)c1ccc(Cl)c(C(=O)OC(C)C)c1 | – | – | inactive
O=c1ccc2nc3ccc(O)cc3oc-2c1 | < 3.70 | 4.85 | –
COc1cc(C2CC(=O)c3ccccc3O2)ccc1O (stereo not drawn) | < 3.70 | 4.93 | –
CC(/C=N/Nc1ccc([N+](=O)[O-])cn1)=N/Nc1ccc([N+](=O)[O-])cn1 | < 3.70 | < 3.70 | –
CC(C)(C)c1cc(Nc2c([N+](=O)[O-])cc([N+](=O)[O-])cc2[N+](=O)[O-])cc(C(C)(C)C)c1O | < 4.78 | < 4.78 | –
